These results are taken from patent US20070197509A1, “Compositions and methods for modulating gated ion channels” (PainCeptor Pharma Corporation, priority 2005, published 2007).

The term IC50 denotes the midpoint of a concentration-inhibition curve.

Molecules are shown by their SMILES. “Also recorded” adds a separate entry of the source. Where two headings read alike, the source gives them in different places. A value given as a limit tells only on which side of the number the result lay.

The target in the experiment is T1, hASIC1a (Homo sapiens, UniProt P78348).
T1 sequence (P78348 1-528): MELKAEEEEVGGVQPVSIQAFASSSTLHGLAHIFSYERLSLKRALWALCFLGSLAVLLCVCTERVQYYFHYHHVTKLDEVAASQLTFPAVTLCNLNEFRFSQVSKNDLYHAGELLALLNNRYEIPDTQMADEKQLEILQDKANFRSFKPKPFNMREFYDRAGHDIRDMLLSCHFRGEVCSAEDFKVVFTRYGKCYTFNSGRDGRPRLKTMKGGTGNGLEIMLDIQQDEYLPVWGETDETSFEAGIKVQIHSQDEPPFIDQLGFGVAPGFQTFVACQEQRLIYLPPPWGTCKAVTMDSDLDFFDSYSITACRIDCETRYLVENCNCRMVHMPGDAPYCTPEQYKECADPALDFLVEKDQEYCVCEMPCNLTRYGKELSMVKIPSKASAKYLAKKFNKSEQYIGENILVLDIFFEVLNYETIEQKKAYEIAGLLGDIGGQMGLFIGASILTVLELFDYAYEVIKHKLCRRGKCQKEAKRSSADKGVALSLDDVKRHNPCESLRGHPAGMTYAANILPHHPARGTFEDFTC
In words: Whole-cell patch clamp of acid-induced currents in cells transfected with hASIC1a. Conditions: for effect on acid-induced hASIC1a inward current (FIGS. 2A, 2B, 3C): whole-cell patch clamp, dose-inhibition curves. On the set-up: expressed in transfected cells. The format is cell-based. As for the experimental part: Another example of an in vitro assessment method consists of using mammalian heterologous expression systems, which are known to those skilled in the art, and include a variety of mammalian cell lines such as COS, HEK, e.g., HEK293 and/or CHO, cells. Cell lines are transfected with gated ion channel(s) and used to perform electrophysiology as follows:
All experiments are performed at room temperature (20-25° C.) in voltage clamp using conventional whole cell patch clamp methods (Neher, E., et al. (1978) Pfluegers Arch 375:219-228).
The amplifier used is the EPC-9 (HEKA-electronics, Lambrect, Germany) run by a Macintosh G3 computer via an ITC-16 interface. Experimental conditions are set with the Pulse-software accompanying the amplifier. Data is low pass filtered and sampled directly to hard-disk at a rate of 3 times the cut-off frequency.
Pipettes are pulled from borosilicate glass using a horizontal electrode puller (Zeitz-lnstrumente, Augsburg, Germany). The pipette resistances are 2-3 MOhms in the salt solutions used in these experiments. The pipette electrode is a chloridized silver wire, and the reference is a silver chloride pellet electrode (In Vivo Metric, Healdsburg, USA) fixed to the experimental chamber. The electrodes are zeroed with the open pipette in the bath just prior to sealing.
Coverslips with the cells are transferred to a 15 μl experimental chamber mounted on the stage of an inverted microscope (IMT-2, Olympus) supplied with Nomarski optics. Cells are continuously superfused with extracellular saline at a rate of 2.5 ml/min. After giga-seal formation, the whole cell configuration is attained by suction. The cells are held at a holding voltage of −60 mV and at the start of each experiment the current is continuously measured for 45 s to ensure a stable baseline. Solutions of low pH (<7) are delivered to the chamber through a custom-made gravity-driven flowpipe, the tip of which is placed approximately 50 μm from the cell. Application is triggered when the tubing connected to the flowpipe is compressed by a valve controlled by the Pulse-software. Initially, low pH (in general, pH 6.5) is applied for 5 s every 60 s. The sample interval during application is 550 μs. After stable responses are obtained, the extracellular saline as well as the low-pH solution are switched to solutions containing the compound to be tested. The compound is present until responses of repeatable amplitude are achieved. Current amplitudes are measured at the peak of the responses, and effect of the compounds is calculated as the amplitude at compound equilibrium divided by the amplitude of the current evoked by the pulse just before the compound was included.
The following salt solutions are used: extracellular solution (mM): NaCl (140), KCl (4), CaCl2 (2), MgCl2 (4), HEPES (10, pH 7.4); intracellular solution (mM): KCl (120), KOH (31), MgCl2 (1.785), EGTA (10), HEPES (10, pH 7.2). In general, compounds for testing are dissolved in 50% DMSO at 500 fold the highest concentration used.
CHO cells were transfected with hASIC1a and used to perform full dose-inhibition curves with Compound B, and Compound R. Results are expressed as a fraction of the control peak current obtained in the absence of the test substance.

Setting [1] is: Table H, read-out: IC50 (μM) Patch Clamp (h1a).

For `COc1ccc(C(=O)CN2CCN(c3cc(C)nc4ccccc34)CC2)cc1` [Compound A, 1-(4-methoxy-phenyl)-2-[4-(2-methyl-quinolin-4-yl)-piperazin-1-yl]-ethanone], the concentration for half-maximal inhibition (IC50) under setting [1] was above 10 µM.

With `Fc1cccc2c(OC3CCN(Cc4ccccc4)CC3)cc(C(F)(F)F)nc12` [Compound B, 4-(1-benzyl-piperidin-4-yloxy)-8-fluoro-2-trifluoromethyl-quinoline], the “effect on acid-induced hASIC1a inward current (FIGS. 2A, 2B, 3C)” value was “dose-dependently reduce hASIC1a activity; also recorded: dose-dependent reduction”.

Turning to `Cc1cc(OC2CCN(Cc3ccccc3)CC2)c2ccccc2n1` [Compound R, 4-(1-benzyl-piperidin-4-yloxy)-2-methyl-quinoline], the “effect on acid-induced hASIC1a inward current (FIGS. 2A, 2B, 3C)” value is listed as “dose-dependently reduce hASIC1a activity; also recorded: reduced the hASIC1a pH-evoked response in a dose-dependent manner; also recorded: dose-dependent reduction”. Besides, under setting [1], the IC50 is 3.8 µM. Further, the IC50 (patch clamp (PC), Tables A-F, h1a printed in some cells only, read-out: Biological Data (IC50 uM) h1a (PC)) lay within 2 to 10 µM. The “selectivity hASIC1a versus hASIC3” value (patch clamp, CHO cells, FIG. 3) is on record as “selective against specific ASIC subunits; also recorded: selective for hASIC1a over hASIC3”. The “reversibility of the effect on hASIC1a current” value (washout of the compound after 1 μM) was “fully reversed upon washout”.
